What was measured:
[1] = Rat pharmacokinetics: IV infusion 1 mg/kg, then PO 5 mg/kg; blood and urine by LC-MS/MS; type: in vivo, Male Wistar Han rats; conditions: for bioavailability: male, Wistar Han, oral bioavailability, ratio of dose-normalised AUC PO (5 mg/kg) and IV infusion (1 mg/kg); for bioavailability / AUC: whole blood; for Ue % po: percentage of oral dose (5 mg/kg) eliminated unchanged in urine; for AUC: area under blood concentration-time profile, PO 5 mg/kg, male Wistar Han rats, n = 3
Text: General Assays for Obtaining AUC Oral h*μm, % F, and Ue % PO Values
Male Wistar Han rats were purchased from Vital River Laboratory Animal Technology Co. Ltd (Beijing, China). The animals were approx. 6-8 weeks old with body weights of 200-300 g on the dosing date. The animals were housed in a 12-hour light/12-hour dark cycle environment and had free access to food and water. All animals were fed prior to dosing. Studies were approved by the Pharmaron Institutional Animal Care and Use Committee (IACUC).
Test article was administered as an intravenous infusion for 1 hour (1 mg/kg) at 5 mL/kg/h. After 48 h, animals received a single oral dose (5 mg/kg, free form) at a dose volume of 10 mL/kg, respectively. Blood samples were collected at various time points after IV infusion and PO administrations. Urine samples were collected at various time points after IV infusion and PO administrations.
Test article was dissolved in DMSO with vortexing and sonification to obtain a stock solution. An aliquot of the stock solution was mixed with 10% HP-β-CD in saline with vortexing to obtain a solution with concentration at 0.2 mg/mL of test article.
Test article was added into 1% Methyl Cellulose with vortexing and sonication to obtain a homogeneous suspension with concentration at 0.5 mg/mL of test article.
For IV infusion (1 mg/kg) administration, blood samples were collected from each animal at 0, 0.25, 0.5, 0.75, 1, 1.08, 1.25, 1.5, 1.75, 2, 3, 5, 8, 12, 24 hour post-dose.
For PO (5 mg/kg) administration, blood samples were collected from each animal at 0, 0.25, 0.5, 1, 1.5, 2, 3, 4, 6, 8, 12, 24 hour post-dose.
Blood samples (50 μL) were collected from each animal via jugular vein. These blood samples were placed into tubes containing K2EDTA. Whole blood was mixed with same volume of water and inverted several times. The blood samples were stored at −75±15° C. until analysis.
For IV infusion (1 mg/kg) administration, urine samples were collected from each animal at 0-4, 4-8, 8-12, 12-24 hour post-dose.
For PO (5 mg/kg) administration, urine samples were collected from each animal at 0-4, 4-8, 8-12, 12-24 hour post-dose.
Urine samples were collected continuously into containers maintained over dry ice at the intervals outlined below and stored at −80° C. prior to analysis.
55 μL of standards, 55 μL of QC samples or 55 μL of unknown samples (50 μL of blood or urine with 5 μL 50% acetonitrile) were mixed to 200 μL of acetonitrile containing IS (dexamethasone) to precipitate proteins. Then the samples were vortexed for 30 sec. After centrifugation at 4° C., 4700 rpm for 30 min, and 5 μL of the supernatant was injected into the LC-MS/MS system for quantitative analysis.
Test article blood and urine concentrations for each animal following IV infusion at 1 mg/kg and PO at 5 mg/kg were used to calculate pharmacokinetic parameters by employing a non-compartmental analysis (Phoenix™ WinNonlin® 7.0). The linear trapezoidal algorithm was used for AUC calculation.

[2] = target: T1, FimH (Escherichia coli, UniProt Q1R2J4); type: cell-based; conditions: concentration reducing bacterial agglutination of guinea pig red blood cells by greater than 90%; UTI89 bacteria;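 also: concentration in nM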
T1 construct: endogenous in cells; host or cells: E. coli UTI89 whole bacteria, agglutinating guinea pig red blood cells
Experimental: Hemagglutination Inhibition Assay (HAI)
The hemagglutination inhibition (HAI) assay was performed with UTI89 bacteria and guinea pig red blood cells, as previously described (S. J. Hultgren, W. R. Schwan, A. J. Schaeffer, J. L. Duncan Infect. Immun. 1986, 54, 613-620 and Jarvis, C.; Han, Z.; Kalas, V.; Klein, R.; Pinkner, J. S.; Ford, B.; Binkley, J.; Cusumano, C. K.; Cusumano, Z.; Mydock-McGrane, L.; Hultgren, S. J.; Janetka, J. W., ChemMedChem 2016, 11, 367-373).

SMILES	HAI titer EC > 90 [2]	also measured
Cc1cc(-c2cc(F)c(C)c(F)c2)ccc1[C@@H](O)[C@H]1O[C@H](CO)[C@@H](O)[C@H](O)[C@@H]1O [Example 1, (2R,3S,4S,5S,6R)-2-((R)-(3′,5′-Difluoro-3,4′-dimethyl-[1,1′-biphenyl]-4-yl)(hydroxy)methyl)-6-(hydroxymethyl)tetrahydro-2H-pyran-3,4,5-triol]	“++++” (<50 “++++”)	bioavailability [1]: 10 to 30%; Ue % po [1]: “++” (0.5 <= x <= 5%); AUC [1]: < 0.5 µM·h
Cc1cc(-c2cc(F)c(Cl)c(F)c2)ccc1[C@@H](O)[C@H]1O[C@H](CO)[C@@H](O)[C@H](O)[C@@H]1O [Example 2, (2R,3S,4S,5S,6R)-2-((R)-(4′-Chloro-3′,5′-difluoro-3-methyl-[1,1′-biphenyl]-4-yl)(hydroxy)methyl)-6-(hydroxymethyl)tetrahydro-2H-pyran-3,4,5-triol]	“++++” (<50 “++++”)	bioavailability [1]: 10 to 30%; Ue % po [1]: “++” (0.5 <= x <= 5%); AUC [1]: > 1 µM·h
Cc1cc(-c2cc(F)c(Br)c(F)c2)ccc1[C@@H](O)[C@H]1O[C@H](CO)[C@@H](O)[C@H](O)[C@@H]1O [Example 3, (2R,3S,4S,5S,6R)-2-((R)-(4′-Bromo-3′,5′-difluoro-3-methyl-[1,1′-biphenyl]-4-yl)(hydroxy)methyl)-6-(hydroxymethyl)tetrahydro-2H-pyran-3,4,5-triol]	“++++” (<50 “++++”)	bioavailability [1]: 10 to 30%; Ue % po [1]: “++” (0.5 <= x <= 5%); AUC [1]: > 1 µM·h
Cc1cc(-c2ccc(C(F)(F)F)c(C(F)(F)F)c2)ccc1[C@@H](O)[C@H]1O[C@H](CO)[C@@H](O)[C@H](O)[C@@H]1O [Example 67]	“++++” (<50 “++++”)	–
Cc1cc(-c2ccc([C@@H](O)[C@H]3O[C@H](CO)[C@@H](O)[C@H](O)[C@@H]3O)c(C)c2)cc(C(F)(F)F)c1 [Example 68]	“++++” (<50 “++++”)	–
COc1ccc(-c2ccc([C@@H](O)[C@H]3O[C@H](CO)[C@@H](O)[C@H](O)[C@@H]3O)c(C)c2)cc1C(F)(F)F [Example 69]	“++++” (<50 “++++”)	–
Cc1cc(-c2cc(F)cc(F)c2F)ccc1[C@@H](O)[C@H]1O[C@H](CO)[C@@H](O)[C@H](O)[C@@H]1O [Example 70]	“++++” (<50 “++++”)	–
COc1c(F)cc(-c2ccc([C@@H](O)[C@H]3O[C@H](CO)[C@@H](O)[C@H](O)[C@@H]3O)c(C)c2)cc1Cl [Example 71]	“++++” (<50 “++++”)	–
Cc1cc(-c2cccc(C(F)(F)F)c2)ccc1[C@@H](O)[C@H]1O[C@H](CO)[C@@H](O)[C@H](O)[C@@H]1O [Example 75]	“+++” (50-200 “+++”)	–
COc1cc(-c2ccc([C@@H](O)[C@H]3O[C@H](CO)[C@@H](O)[C@H](O)[C@@H]3O)c(C)c2)ccc1C(F)(F)F [Example 76]	“++++” (<50 “++++”)	–
Cc1cc(-c2cccc(F)c2)ccc1[C@@H](O)[C@H]1O[C@H](CO)[C@@H](O)[C@H](O)[C@@H]1O [Example 77]	“+++” (50-200 “+++”)	–
CCOc1ccc(-c2ccc([C@@H](O)[C@H]3O[C@H](CO)[C@@H](O)[C@H](O)[C@@H]3O)c(C)c2)cc1F [Example 81]	“++++” (<50 “++++”)	–
COc1cc(F)c(-c2ccc([C@@H](O)[C@H]3O[C@H](CO)[C@@H](O)[C@H](O)[C@@H]3O)c(C)c2)cc1F [Example 82]	“++++” (<50 “++++”)	–
Cc1cc(-c2ccc(CN(C)C)c(F)c2)ccc1[C@@H](O)[C@H]1O[C@H](CO)[C@@H](O)[C@H](O)[C@@H]1O [Example 83]	“++++” (<50 “++++”)	–
Cc1cc(-c2cc(C)c(C)c(F)c2)ccc1[C@@H](O)[C@H]1O[C@H](CO)[C@@H](O)[C@H](O)[C@@H]1O [Example 84]	“++++” (<50 “++++”)	–
Cc1cc(-c2cc(F)cc(C(F)F)c2)ccc1[C@@H](O)[C@H]1O[C@H](CO)[C@@H](O)[C@H](O)[C@@H]1O [Example 85]	“++++” (<50 “++++”)	–
Cc1cc(-c2cc(C(F)F)cc(C(F)F)c2)ccc1[C@@H](O)[C@H]1O[C@H](CO)[C@@H](O)[C@H](O)[C@@H]1O [Example 86]	“++++” (<50 “++++”)	–

SMILES	HAI titer EC > 90 [2]	also measured
COc1cc(-c2ccc([C@@H](O)[C@H]3O[C@H](CO)[C@@H](O)[C@H](O)[C@@H]3O)c(C)c2)cc(F)c1C(F)(F)F [Example 87]	“++++” (<50 “++++”)	–
Cc1cc(-c2cc(C)c(F)c(F)c2)ccc1[C@@H](O)[C@H]1O[C@H](CO)[C@@H](O)[C@H](O)[C@@H]1O [Example 88]	“++++” (<50 “++++”)	–
Cc1cc(-c2cc(F)c(C(C)C)c(F)c2)ccc1[C@@H](O)[C@H]1O[C@H](CO)[C@@H](O)[C@H](O)[C@@H]1O [Example 89]	“++++” (<50 “++++”)	–
Cc1cc(-c2cc(OC(C)C)cc(C(F)(F)F)c2)ccc1[C@@H](O)[C@H]1O[C@H](CO)[C@@H](O)[C@H](O)[C@@H]1O [Example 90]	“+++” (50-200 “+++”)	–
CCCc1c(F)cc(-c2ccc([C@@H](O)[C@H]3O[C@H](CO)[C@@H](O)[C@H](O)[C@@H]3O)c(C)c2)cc1F [Example 92]	“++++” (<50 “++++”)	–
Cc1cc(-c2cc(F)c(OC(F)F)c(F)c2)ccc1[C@@H](O)[C@H]1O[C@H](CO)[C@@H](O)[C@H](O)[C@@H]1O [Example 96]	“++++” (<50 “++++”)	–
OC[C@H]1O[C@H]([C@H](O)c2ccc(-c3cc(F)c(F)c(F)c3)cc2C(F)(F)F)[C@@H](O)[C@@H](O)[C@@H]1O [Example 97]	“++++” (<50 “++++”)	–
Cc1cc(-c2ccc(F)cc2)ccc1[C@@H](O)[C@H]1O[C@H](CO)[C@@H](O)[C@H](O)[C@@H]1O [Example 98]	“+++” (50-200 “+++”)	–
Cc1cc(-c2ccc(Cl)cc2)ccc1[C@@H](O)[C@H]1O[C@H](CO)[C@@H](O)[C@H](O)[C@@H]1O [Example 99]	“+++” (50-200 “+++”)	–
Cc1cc(-c2ccc(C3CC3)cc2)ccc1[C@@H](O)[C@H]1O[C@H](CO)[C@@H](O)[C@H](O)[C@@H]1O [Example 100]	“+++” (50-200 “+++”)	–
COCc1c(F)cc(-c2ccc([C@@H](O)[C@H]3O[C@H](CO)[C@@H](O)[C@H](O)[C@@H]3O)c(C)c2)cc1F [Example 102]	“++++” (<50 “++++”)	–
C#Cc1c(F)cc(-c2ccc([C@@H](O)[C@H]3O[C@H](CO)[C@@H](O)[C@H](O)[C@@H]3O)c(C)c2)cc1F [Example 103]	“++++” (<50 “++++”)	–
Cc1cc(-c2cc(F)c(N(C)C)c(F)c2)ccc1[C@@H](O)[C@H]1O[C@H](CO)[C@@H](O)[C@H](O)[C@@H]1O [Example 104]	“++++” (<50 “++++”)	–
Cc1cc(-c2ccc(C(F)(F)F)cc2)ccc1[C@@H](O)[C@H]1O[C@H](CO)[C@@H](O)[C@H](O)[C@@H]1O [Example 105]	“+++” (50-200 “+++”)	–
COc1cc(-c2ccc([C@@H](O)[C@H]3O[C@H](CO)[C@@H](O)[C@H](O)[C@@H]3O)c(C)c2)cc(C(F)(F)F)c1F [Example 106]	“++++” (<50 “++++”)	–
Cc1cc(-c2cc(F)cc(N(C)C)c2)ccc1[C@@H](O)[C@H]1O[C@H](CO)[C@@H](O)[C@H](O)[C@@H]1O [Example 109]	“++++” (<50 “++++”)	–
Cc1cc(-c2cc(F)c(F)c(C(F)(F)F)c2)ccc1[C@@H](O)[C@H]1O[C@H](CO)[C@@H](O)[C@H](O)[C@@H]1O [Example 110]	“++++” (<50 “++++”)	–
